From ChEMBL document CHEMBL4308841, “Synthesis, in vitro antiproliferative activity, and kinase inhibitory effects of pyrazole-containing diarylureas and diarylamides” (Eur J Med Chem, 2018)

Key:
BT-549 [1] = assay: Growth inhibition of human BT549 cells assessed as cell growth at 100 uM incubated for 48 hrs by sulforhodamine B assay relative to control; format: functional; conditions: BT-549, 48 h, read-out: Activity
NCI-H322M = assay: Growth inhibition of human NCI-H322M cells assessed as cell growth at 100 uM incubated for 48 hrs by sulforhodamine B assay relative to control; format: functional; conditions: read-out: Activity
BT-549 [2] = assay: Growth inhibition of human BT549 cells incubated for 48 hrs by sulforhodamine B assay; format: functional, cell-based; conditions: BT-549, 48 h
HT-29 [3] = assay: Growth inhibition of human HT-29 cells assessed as cell growth at 10 uM incubated for 48 hrs by sulforhodamine B assay relative to control; format: functional; conditions: HT-29, 48 h, read-out: Activity
SN12C [4] = assay: Growth inhibition of human SN12C cells incubated for 48 hrs by sulforhodamine B assay; format: functional, cell-based
SW-620 = assay: Growth inhibition of human SW620 cells assessed as cell growth at 1 uM incubated for 48 hrs by sulforhodamine B assay relative to control; format: functional; conditions: SW-620, 48 h, read-out: Activity
SN12C [5] = assay: Growth inhibition of human SN12C cells assessed as cell growth at 0.01 uM incubated for 48 hrs by sulforhodamine B assay relative to control; format: functional; conditions: read-out: Activity
DU-145 = assay: Growth inhibition of human DU145 cells assessed as cell growth at 0.1 uM incubated for 48 hrs by sulforhodamine B assay relative to control; format: functional; conditions: DU-145, 48 h, read-out: Activity
HCT-15 [6] = assay: Growth inhibition of human HCT15 cells assessed as cell growth at 0.1 uM incubated for 48 hrs by sulforhodamine B assay relative to control; format: functional; conditions: HCT-15, 48 h, read-out: Activity
MDA-MB-435 = assay: Growth inhibition of human MDA-MB-435 cells assessed as cell growth at 1 uM incubated for 48 hrs by sulforhodamine B assay relative to control; format: functional; conditions: MDA-MB-435, 48 h, read-out: Activity
SF-268 = assay: Growth inhibition of human SF268 cells assessed as cell growth at 0.01 uM incubated for 48 hrs by sulforhodamine B assay relative to control; format: functional; conditions: SF-268, 48 h, read-out: Activity
MOLT-4 = assay: Growth inhibition of human MOLT4 cells assessed as cell growth at 1 uM incubated for 48 hrs by sulforhodamine B assay relative to control; format: functional; conditions: MOLT-4, 48 h, read-out: Activity
SNB-75 = assay: Growth inhibition of human SNB75 cells assessed as cell growth at 1 uM incubated for 48 hrs by sulforhodamine B assay relative to control; format: functional; conditions: SNB-75, 48 h, read-out: Activity
HT-29 [7] = assay: Growth inhibition of human HT-29 cells incubated for 48 hrs by sulforhodamine B assay; format: functional, cell-based; conditions: HT-29, 48 h
UO-31 = assay: Growth inhibition of human UO31 cells assessed as cell growth at 0.1 uM incubated for 48 hrs by sulforhodamine B assay relative to control; format: functional; conditions: UO-31, 48 h, read-out: Activity
MDA-MB-468 = assay: Growth inhibition of human MDA-MB-468 cells assessed as cell growth at 0.01 uM incubated for 48 hrs by sulforhodamine B assay relative to control; format: functional; conditions: MDA-MB-468, 48 h, read-out: Activity
RXF 393 = assay: Growth inhibition of human RXF393 cells assessed as cell growth at 1 uM incubated for 48 hrs by sulforhodamine B assay relative to control; format: functional; conditions: RXF 393, 48 h, read-out: Activity
OVCAR-8 [8] = assay: Growth inhibition of human OVCAR8 cells incubated for 48 hrs by sulforhodamine B assay; format: functional, cell-based; conditions: OVCAR-8, 48 h
MDA-MB-231 = assay: Growth inhibition of human MDA-MB-231 cells assessed as cell growth at 1 uM incubated for 48 hrs by sulforhodamine B assay relative to control; format: functional; conditions: MDA-MB-231, 48 h, read-out: Activity
SK-MEL-28 = assay: Growth inhibition of human SK-MEL-28 cells assessed as cell growth at 0.01 uM incubated for 48 hrs by sulforhodamine B assay relative to control; format: functional; conditions: SK-MEL-28, 48 h, read-out: Activity
HCT-15 [9] = assay: Growth inhibition of human HCT15 cells incubated for 48 hrs by sulforhodamine B assay; format: functional, cell-based; conditions: HCT-15, 48 h
A549 = assay: Growth inhibition of human A549/ATCC cells assessed as cell growth at 0.01 uM incubated for 48 hrs by sulforhodamine B assay relative to control; format: functional; conditions: A549, 48 h, read-out: Activity
OVCAR-5 = assay: Growth inhibition of human OVCAR5 cells assessed as cell growth at 0.01 uM incubated for 48 hrs by sulforhodamine B assay relative to control; format: functional; conditions: OVCAR-5, 48 h, read-out: Activity
OVCAR-8 [10] = assay: Growth inhibition of human OVCAR8 cells assessed as cell growth at 0.1 uM incubated for 48 hrs by sulforhodamine B assay relative to control; format: functional; conditions: OVCAR-8, 48 h, read-out: Activity
HT-29 [11] = assay: Growth inhibition of human HT-29 cells assessed as cell growth at 0.1 uM incubated for 48 hrs by sulforhodamine B assay relative to control; format: functional; conditions: HT-29, 48 h, read-out: Activity
A498 = assay: Growth inhibition of human A498 cells assessed as cell growth at 1 uM incubated for 48 hrs by sulforhodamine B assay relative to control; format: functional; conditions: A498, 48 h, read-out: Activity
K562 = assay: Growth inhibition of human K562 cells assessed as cell growth at 0.1 uM incubated for 48 hrs by sulforhodamine B assay relative to control; format: functional; conditions: K562, 48 h, read-out: Activity
CCRF-CEM = assay: Growth inhibition of human CCRF-CEM cells incubated for 48 hrs by sulforhodamine B assay; format: functional, cell-based
[12] = read-out: LC50 (the source's name)
[13] = read-out: pLC50 (the source's name) (converted)

COc1cc(Cl)cc(-c2nn(-c3cccc(NC(=O)c4ccc(N5CCOCC5)c(C(F)(F)F)c4)c3)cc2-c2ccncc2)c1
growth at 100 µM (BT-549 [1]): 49%
growth at 100 µM (NCI-H322M): 48%
GI50 (BT-549 [2]; read-out: GI50): 5.9 µM
CC50 (BT-549 [2]; [12]): > 100 µM
TGI (BT-549 [2]; read-out: TGI): > 100 µM
GI50 (BT-549 [2]; read-out: pGI50 (converted)): 89.1 µM
CC50 (BT-549 [2]; [13]): > 100 µM
TGI (BT-549 [2]; read-out: pTGI (converted)): > 100 µM
growth at 10 µM (HT-29 [3]): 21.2%
GI50 (SN12C [4]; read-out: GI50): > 100 µM
LC50 (SN12C [4]; read-out: LC50): > 100 µM
TGI (SN12C [4]; read-out: TGI): > 100 µM
GI50 (SN12C [4]; read-out: pGI50 (converted)): > 100 µM
LC50 (SN12C [4]; read-out: pLC50 (converted)): > 100 µM
TGI (SN12C [4]; read-out: pTGI (converted)): > 100 µM
growth at 1 µM (SW-620): 103%
growth at 0.01 µM (SN12C [5]): 97%
growth at 0.1 µM (DU-145): 97%
growth at 0.1 µM (HCT-15 [6]): 85%
growth at 1 µM (MDA-MB-435): 92%
growth at 0.01 µM (SF-268): 95%
growth at 1 µM (MOLT-4): 77%
growth at 1 µM (SNB-75): 51%
GI50 (HT-29 [7]; read-out: GI50): 4 µM
CC50 (HT-29 [7]; [12]): > 100 µM
TGI (HT-29 [7]; read-out: TGI): 38 µM
GI50 (HT-29 [7]; read-out: pGI50 (converted)): 4.07 µM
CC50 (HT-29 [7]; [13]): > 100 µM
TGI (HT-29 [7]; read-out: pTGI (converted)): 38 µM
growth at 0.1 µM (UO-31): 87%
growth at 0.01 µM (MDA-MB-468): 94%
growth at 1 µM (RXF 393): 45%
GI50 (OVCAR-8 [8]; read-out: GI50): 6.33 µM
CC50 (OVCAR-8 [8]; [12]): > 100 µM
TGI (OVCAR-8 [8]; read-out: TGI): > 100 µM
GI50 (OVCAR-8 [8]; read-out: pGI50 (converted)): 6.31 µM
CC50 (OVCAR-8 [8]; [13]): > 100 µM
TGI (OVCAR-8 [8]; read-out: pTGI (converted)): > 100 µM
growth at 1 µM (MDA-MB-231): 78%
growth at 0.01 µM (SK-MEL-28): 97%
GI50 (HCT-15 [9]; read-out: GI50): 3.25 µM
CC50 (HCT-15 [9]; [12]): > 100 µM
TGI (HCT-15 [9]; read-out: TGI): > 100 µM
GI50 (HCT-15 [9]; read-out: pGI50 (converted)): 3.24 µM
CC50 (HCT-15 [9]; [13]): > 100 µM
TGI (HCT-15 [9]; read-out: pTGI (converted)): > 100 µM
growth at 0.01 µM (A549): 103%
growth at 0.01 µM (OVCAR-5): 94%
growth at 0.1 µM (OVCAR-8 [10]): 100%
growth at 0.1 µM (HT-29 [11]): 93%
growth at 1 µM (A498): 55%
growth at 0.1 µM (K562): 95%
GI50 (CCRF-CEM; read-out: GI50): 3.58 µM
CC50 (CCRF-CEM; [12]): > 100 µM
TGI (CCRF-CEM; read-out: TGI): > 100 µM
GI50 (CCRF-CEM; read-out: pGI50 (converted)): 3.89 µM
CC50 (CCRF-CEM; [13]): > 100 µM
TGI (CCRF-CEM; read-out: pTGI (converted)): > 100 µM
